In patent US20120283216A1, “FUNGICIDAL 2-(BICYCLIC ARYLOXY)CARBOXAMIDES” (priority 2009, published 2012):

What was measured:
Assay type in all cases: in vivo
Septoria tritici = assay: Test B: wheat leaf blotch, preventive spray on wheat seedlings, visual disease rating; conditions: preventive spray at 40 ppm, rated after 48 h + 19 days; for pest or weed control at 40 ppm: Zymoseptoria tritici, 504 h, read-out: Test B disease control rating (100 = 100% disease control, 0 = no disease control relative to the controls)
Procedure, shortened: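 Wheat seedlings were sprayed to run-off with 40 ppm compound (≈800 g/ha) in acetone/water with 250 ppm surfactant, then inoculated with Septoria tritici spores the next day. After 48 h saturated humidity at 20° C and 19 days in a growth chamber at 20° C, disease control was rated visually (0–100% vs controls).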

[1] = test system: Blumeria graminis f. sp. tritici; assay: Test A: wheat powdery mildew, preventive spray on wheat seedlings, visual disease rating; conditions: preventive spray at 40 ppm, rated 8 days after inoculation; for pest or weed control at 40 ppm: Blumeria graminis, 192 h, read-out: Test A disease control rating (100 = 100% disease control, 0 = no disease control relative to the controls)
Procedure, shortened: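 Wheat seedlings sprayed to run-off with 40 ppm compound (equivalent to 800 g/ha) in acetone/water with 250 ppm surfactant, then dusted with B. graminis spores next day. Held at 20° C. for 8 days before visual rating, 0–100 scale as % disease control relative to controls.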

Botrytis cinerea = assay: Test C: tomato botrytis, preventive spray on tomato seedlings, visual disease rating; conditions: preventive spray at 40 ppm, rated after 48 h + 3 days; for pest or weed control at 40 ppm: Botrytis cinerea, 120 h, read-out: Test C disease control rating (100 = 100% disease control, 0 = no disease control relative to the controls)
Procedure, shortened: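 Compounds applied at 40 ppm (≈800 g/ha) in acetone/water with surfactant, sprayed to run-off on tomato seedlings. Inoculated next day with B. cinerea spores; 48 h saturated humidity at 20 °C, then 3 days at 27 °C. Visual rating as % disease control versus untreated controls.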

Compound	Test B disease control rating (100 = 100% disease control, 0 = no disease control relative to the controls) (Septoria tritici) [%]	Test A disease control rating (100 = 100% disease control, 0 = no disease control relative to the controls) [1] [%]	Test C disease control rating (100 = 100% disease control, 0 = no disease control relative to the controls) (Botrytis cinerea) [%]	pest or weed control at 40 ppm (Septoria tritici) [%]	pest or weed control at 40 ppm [1] [%]	pest or weed control at 40 ppm (Botrytis cinerea) [%]
CCCOc1ccc2ccc(OC(OC)C(=O)NC(C)(C)CC)cc2c1 (stereo not drawn) [Compound 136]	98	79	97	–	–	–
CCC(Oc1ccc2ccc(O)cc2c1)C(=O)NC(C)(C)C (stereo not drawn) [Compound 89]	–	–	–	63	0	86
CC#Cc1ccc2ncc(OC(OC)C(=O)NC(C)(C)C)cc2c1 (stereo not drawn) [Compound 156, N-(1,1-dimethylethyl)-2-methoxy-2-[[6-(1-propyn-1-yl)-3-quinolinyl]oxy]-acetamide]	–	–	–	96	98	99
C#Cc1ccc2ncc(OC(CC)C(=O)NC(C)(C)C)cc2c1 (stereo not drawn) [Compound 149]	100	100	98	–	–	–
C#CC(C)(C)NC(=O)C(OC)Oc1ccc2ccc(Br)cc2c1 (stereo not drawn) [Compound 94]	100	99	100	–	–	–
C#Cc1ccc2ncc(OC(OC)C(=O)NC(C)(C)C)cc2c1 (stereo not drawn) [Compound 163]	100	99	100	–	–	–
CCC(Oc1cnc2ccc(F)cc2c1)C(=O)NC(C)(C)COC (stereo not drawn) [Compound 54]	71	0	0	–	–	–
CCC(Oc1ccc2ccc(Br)cc2c1)C(=O)NC(C)(C)C(F)(F)F (stereo not drawn) [Compound 27]	86	99	98	–	–	–
CCOc1ccc2ccc(OC(CC)C(=O)NC(C)(C)C#N)cc2c1 (stereo not drawn) [Compound 75, N-(1-cyano-1-methylethyl)-2-[(7-ethoxy-2-naphthalenyl)oxy]butanamide]	–	–	–	100	100	100
CC#CC(C)(C)NC(=O)C(CC)Oc1ccc2ccc(CC)cc2c1 (stereo not drawn) [Compound 142]	77	96	93	–	–	–
COc1ccc2ccc(OC(OC)C(=O)NC(C)(C)C#N)cc2c1 (stereo not drawn) [Compound 81]	99	0	100	–	–	–
CCC(Oc1ccc2ccc(C#N)cc2c1)C(=O)NC(C)(C)COCOC (stereo not drawn) [Compound 22, 2-[(7-cyano-2-naphthalenyl)oxy]-N-[2-(methoxymethoxy)-1,1-dimethylethyl]butanamide]	–	–	–	100	93	100
C#CC(C)(C)NC(=O)C(OC)Oc1cnc2ccc(I)cc2c1 (stereo not drawn) [Compound 63, N-(1,1-dimethyl-2-propyn-1-yl)-2-[(6-iodo-3-quinolinyl)oxy]-2-methoxy-acetamide]	–	–	–	99	93	99
CCOCC(C)(C)NC(=O)C(CC)Oc1ccc2ccc(CC)cc2c1 (stereo not drawn) [Compound 139]	47	97	96	–	–	–
CCCOc1ccc2ccc(OC(CC)C(=O)NC(C)(C)COC)cc2c1 (stereo not drawn) [Compound 127]	99	94	99	–	–	–
CCOCC(C)(C)NC(=O)C(CC)Oc1cnc2ccc(Cl)cc2c1 (stereo not drawn) [Compound 50]	98	84	90	–	–	–
C#CC(C)(C)NC(=S)C(CC)Oc1ccc2ccc(OC)cc2c1 (stereo not drawn) [Compound 164]	–	–	–	97	0	99
CCC(Oc1ccc2ccc(OC)cc2c1)C(=O)NC(C)(C)C(=O)OC (stereo not drawn) [Compound 84]	84	0	100	–	–	–
CCC(Oc1ccc2ccc(OC(F)F)cc2c1)C(=O)NC(C)(C)C (stereo not drawn) [Compound 5]	–	–	–	99	99	100
C#Cc1ccc2ncc(OC(CC)C(=O)NC(C)(C)C#C)cc2c1 (stereo not drawn) [Compound 151]	100	99	96	–	–	–
C#CCOc1ccc2ccc(OC(CC)C(=O)NC(C)(C)C)cc2c1 (stereo not drawn) [Compound 134]	100	43	100	–	–	–
C#CC(C)(C)NC(=O)C(CC)Oc1ccc2ccc(C(F)F)cc2c1 (stereo not drawn) [Compound 78]	88	81	99	–	–	–
CC(=O)C(Oc1ccc2ccc(Br)cc2c1)C(=O)NC(C)(C)C (stereo not drawn) [Compound 32]	–	–	–	0	0	26
C#CCOc1ccc2ccc(OC(OC)C(=O)NC(C)(C)C#C)cc2c1 (stereo not drawn) [Compound 132]	99	13	100	–	–	–
CCC(Oc1ccc2ccc(C)cc2c1)C(=O)NC(C)(C)COC (stereo not drawn) [Compound 159, N-(2-methoxy-1,1-dimethylethyl)-2-[(7-methyl-2-naphthalenyl)oxy]-butanamide]	–	–	–	13	99	99
CC#Cc1ccc2ccc(OC(OC)C(=O)NC(C)(C)COC)cc2c1 (stereo not drawn) [Compound 108, 2-methoxy-N-(2-methoxy-1,1-dimethylethyl)-2-[[7-(1-propyn-1-yl)-2-naphthalenyl]oxy]acetamide]	–	–	–	100	100	48
CCC(Oc1ccc2ccc(OC)cc2c1)C(=O)N(CC)C(C)(C)C (stereo not drawn) [Compound 167]	–	–	–	64	0	68
C#CC(C)(C)NC(=O)C(CC)Oc1cnc2ccc(Br)cc2c1 (stereo not drawn) [Compound 38]	100	21	99	–	–	–
